Assay results taken from patent US12162858B2, “Quinoline derivatives as inhibitors of AXL/MER RTK and CSF1R” (QURIENT CO., LTD., priority 2018, dated 2024).

Experiments:
Mer = molecular target: T1, Mer (Homo sapiens, UniProt Q12866); assay: LanthaScreen Eu kinase binding assay for Mer; details: read-out: Mer kinase binding activity (Kd)
T1 construct: purchased Life Technologies
T1 sequence (Q12866 21-999): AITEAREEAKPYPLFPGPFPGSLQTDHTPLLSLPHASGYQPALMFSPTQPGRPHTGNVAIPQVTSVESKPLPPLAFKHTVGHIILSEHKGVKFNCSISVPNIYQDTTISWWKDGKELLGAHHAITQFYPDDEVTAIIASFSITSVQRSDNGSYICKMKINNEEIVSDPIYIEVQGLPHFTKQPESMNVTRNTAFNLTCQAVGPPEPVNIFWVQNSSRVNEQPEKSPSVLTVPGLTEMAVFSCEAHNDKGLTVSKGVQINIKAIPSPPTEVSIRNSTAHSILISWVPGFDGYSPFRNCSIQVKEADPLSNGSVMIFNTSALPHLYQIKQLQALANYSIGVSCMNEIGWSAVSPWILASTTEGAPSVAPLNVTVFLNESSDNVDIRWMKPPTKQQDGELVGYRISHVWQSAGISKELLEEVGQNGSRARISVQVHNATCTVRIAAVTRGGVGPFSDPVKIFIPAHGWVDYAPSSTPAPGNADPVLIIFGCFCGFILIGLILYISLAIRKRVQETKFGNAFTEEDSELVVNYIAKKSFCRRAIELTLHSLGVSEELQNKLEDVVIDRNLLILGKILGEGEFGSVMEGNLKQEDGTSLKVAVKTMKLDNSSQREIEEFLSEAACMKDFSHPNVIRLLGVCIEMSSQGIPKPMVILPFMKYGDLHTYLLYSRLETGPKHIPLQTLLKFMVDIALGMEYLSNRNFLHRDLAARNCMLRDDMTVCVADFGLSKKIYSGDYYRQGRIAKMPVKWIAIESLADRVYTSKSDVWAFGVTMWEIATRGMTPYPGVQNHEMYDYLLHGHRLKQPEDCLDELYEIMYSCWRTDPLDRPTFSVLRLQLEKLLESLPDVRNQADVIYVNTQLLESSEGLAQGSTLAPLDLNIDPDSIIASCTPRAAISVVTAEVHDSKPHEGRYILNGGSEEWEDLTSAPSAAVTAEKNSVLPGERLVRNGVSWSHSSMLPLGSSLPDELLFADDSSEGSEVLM
Procedure: LanthaScreen® Eu Kinase Binding assays were conducted at Life Technologies using the manufacturer's specifications for each kinase indicated.
Briefly, the principle behind this assay is based upon the binding and displacement of an Alexa Fluor 647-labeled tracer to the kinase of interest. Binding of the tracer to the kinase is detected using an EU-labeled anti-tag antibody. Simultaneous binding of both the tracer and antibody to the kinase gives rise to a FRET-signal. Binding of an inhibitor to the kinase competes for binding with the tracer, resulting in a loss of FRET-signal.
A given compound was diluted in DMSO to make a stock compound solution. The stock compound solution was serially diluted over eight steps in DMSO. Each diluted compound solution in DMSO was diluted in kinase buffer. Afterwards four kinds of working solution were prepared. First, Tracer-Working solution consists of Tracer 236 and Kinase Buffer. Second, Axl, Mer, Tyro3 or Met/anti-GST-AB-Working solution contained one of the kinases Axl, and Mer or anti-GST-AB (=anti glutathione-S-transferase antibody) in Kinase Buffer. Third, anti-GST-AB-Working solution was made with anti-GST-AB and Kinase Buffer. Last, in the DMSO-Working solution DMSO was added to Kinase Buffer to a final concentration to 3%. Each of the four kinds of working solutions were separately added to the assay plate and then incubated for 1 h at room temperature. After incubation, the assay plate was measured with respect to the FRET-Signal with the EnVision (Perkin Elmer) using the program LanthaHTRF-Assay. Data evaluation was done in the Quattro Workflow software. Kd (the equilibrium dissociation constant) values were calculated relative to vehicle (DMSO) control wells.

CSF1R (M-NFS-60 cells) = assay: Cell Titer-Glo viability assay using M-NFS-60 cells; format: cell-based; details: Mus musculus, read-out: Cellular CSF1R activity by M-NFS-60 viability assay (IC50 activity range)
Procedure: M-NFS-60 cells were cultured in RPMI-1640 medium containing 10% FBS, 0.05 mM 2-Mercaptoethanol, penicillin (100 U/ml)/streptomycin ([…]) and supplemented with 62 ng/ml recombinant human M-CSF at 37° C./5% CO2. Aliquots of the cells were seeded into a 96-well plate (2×10^5 cells in 100 μl/well) and then incubated at 37° C./5% CO2 1 h. Dissolve compound in 100% DMSO to make 10 mM stock solutions (Aliquots stored in the Nitrogen Cabinet). Dilute 10 mM compounds solutions for 2-fold in 100% DMSO to get 5 mM solutions (10 μl+10 μl DMSO), and then make a 3-fold serial dilution (10 μl+20 μl DMSO) for 10 doses. For reference compounds: Dilute 10 mM compounds solutions for 20-fold in 100% DMSO to get 0.5 mM solutions (2 μl+38 μl DMSO), and then make a 3-fold serial dilution (10 μl+20 μl DMSO) for 8 doses. The 96-well plate was equilibrated at room temperature for 30 min. 50 μl of CellTiter-Glo® Reagent added to each well and mixed for 2 min on an orbital shaker to induce cell lysis. The 96-well plate was incubated at room temperature for 10 min to stabilize luminescent signal. Luminescent was measured […] by EnVison plate reader. Calculations and Formulas: The following calculations and formulas are used for data analysis using XL Fit software: The curve fitting was made using the Sigmoidal Dose-Response Model (Fit model, 205).

Row | SMILES | Kd (Mer) | IC50 (CSF1R (M-NFS-60 cells))
1 | COc1cc2nccc(Oc3ccc(NC(=O)c4nn(CCN)cc4OCC(F)(F)F)nn3)c2cc1OC [Compound 125] | ≥ 0.5 µM | ≥ 10 µM
2 | COCCn1cc(OCC(F)(F)F)c(C(=O)Nc2ccc(Oc3ccnc4cc(OC)c(OC)cc34)nn2)n1 [Compound 126] | < 0.1 µM | 1 to 10 µM
3 | CNCCn1cc(OCC(F)(F)F)c(C(=O)Nc2ccc(Oc3ccnc4cc(OC)c(OC)cc34)nn2)n1 [Compound 127] | ≥ 0.5 µM | ≥ 10 µM
4 | COc1cc2nccc(Oc3ccc(NC(=O)c4nn(C5CCOC5)cc4OCC(F)(F)F)nn3)c2cc1OC (centres unmarked) [Compound 128] | < 0.1 µM | 1 to 10 µM
5 | COc1cc2nccc(Oc3ccc(NC(=O)c4nn(CCO)cc4OCC(F)(F)F)cn3)c2cc1OC [Compound 129] | 0.1 to 0.5 µM | ≥ 10 µM
6 | COc1cc2nccc(Oc3ccc(NC(=O)c4nn(CCOC5CC5)cc4OCC(F)(F)F)cn3)c2cc1OC [Compound 130] | < 0.1 µM | 1 to 10 µM
7 | COc1cc2nccc(Oc3ccc(NC(=O)c4nn(C5CCCC5)cc4OCC(F)(F)F)cn3)c2cc1OC [Compound 131] | < 0.1 µM | 1 to 10 µM
8 | COc1cc2nccc(Oc3ccc(NC(=O)c4nn(C5CCNC5)cc4OCC(F)(F)F)cn3)c2cc1OC (centres unmarked) [Compound 132] | ≥ 0.5 µM | ≥ 10 µM
9 | COc1cc2nccc(Oc3ccc(NC(=O)c4nn(C5CCN(C)C5)cc4OCC(F)(F)F)cn3)c2cc1OC (centres unmarked) [Compound 133] | 0.1 to 0.5 µM | 1 to 10 µM
10 | COc1cc2nccc(Oc3ccc(NC(=O)c4nn(CC5COC5)cc4OCC(F)(F)F)cn3)c2cc1OC [Compound 134] | < 0.1 µM | ≥ 10 µM
11 | COc1cc2nccc(Oc3ccc(NC(=O)c4nn(CCN)cc4OCC(F)(F)F)cn3)c2cc1OC [Compound 135] | ≥ 0.5 µM | ≥ 10 µM
12 | COc1cc2nccc(Oc3ccc(NC(=O)c4nn(CC(C)O)cc4OCC(F)(F)F)cn3)c2cc1OC (centres unmarked) [Compound 136] | < 0.1 µM | 1 to 10 µM
13 | CNCCn1cc(OCC(F)(F)F)c(C(=O)Nc2ccc(Oc3ccnc4cc(OC)c(OC)cc34)nc2)n1 [Compound 137] | ≥ 0.5 µM | 1 to 10 µM
14 | COc1cc2nccc(Oc3ccc(NC(=O)c4nn(C5CCOC5)cc4OCC(F)(F)F)cn3)c2cc1OC (centres unmarked) [Compound 138] | < 0.1 µM | 1 to 10 µM
15 | CCCn1cc(OCC(F)(F)F)c(C(=O)Nc2ccc(Oc3ccnc4cc(OC)c(OC)cc34)nc2)n1 [Compound 139] | < 0.1 µM | 1 to 10 µM
16 | CCCn1cc(OCCNC)c(C(=O)Nc2ccc(Oc3ccnc4cc(OC)c(OC)cc34)cn2)n1 [Compound 140] | 0.1 to 0.5 µM | 1 to 10 µM
17 | CNCCOc1cn(C2CC2)nc1C(=O)Nc1ccc(Oc2ccnc3cc(OC)c(OC)cc23)cn1 [Compound 141] | ≥ 0.5 µM | ≥ 10 µM
18 | COc1cc2nccc(Oc3ccc(NC(=O)c4nn(C5CC5)cc4NCCC(F)(F)F)nc3)c2cc1OC [Compound 142] | < 0.1 µM | 1 to 10 µM
19 | COc1cc2nccc(Oc3ccc(NC(=O)c4nn(C5CC5)cc4OCC4COC4)nc3)c2cc1OC [Compound 143] | < 0.1 µM | 1 to 10 µM
20 | COc1cc2nccc(Oc3ccc(NC(=O)c4nn(C5CC5)cc4OCC4CNC4)nc3)c2cc1OC [Compound 144] | 0.1 to 0.5 µM | ≥ 10 µM

Row | SMILES | Kd (Mer) | IC50 (CSF1R (M-NFS-60 cells))
21 | COc1cc2nccc(Oc3ccc(NC(=O)c4nn(C5CC5)cc4NCC(F)(F)F)nc3)c2cc1OC [Compound 145] | < 0.1 µM | < 1 µM
22 | COc1cc2nccc(Oc3ccc(NC(=O)c4nn(C5CC5)cc4NCCC(F)(F)F)nn3)c2cc1OC [Compound 146] | < 0.1 µM | 1 to 10 µM
23 | COc1cc2nccc(Oc3ccc(NC(=O)c4nn(C5CC5)cc4OC(C)C)nn3)c2cc1OC [Compound 147] | < 0.1 µM | 1 to 10 µM
24 | COc1cc2nccc(Oc3ccc(NC(=O)c4nn(C5CC5)cc4NCC(F)(F)F)nn3)c2cc1OC [Compound 148] | < 0.1 µM | 1 to 10 µM
25 | COc1cc2nccc(Oc3ccc(NC(=O)c4nn(C5CC5)cc4OCC4CCC4)nn3)c2cc1OC [Compound 149] | < 0.1 µM | 1 to 10 µM
26 | COCCOc1cn(CC(C)O)nc1C(=O)Nc1ccc(Oc2ccnc3cc(OC)c(OC)cc23)cn1 (centres unmarked) [Compound 150] | < 0.1 µM | 1 to 10 µM
27 | COc1cc2nccc(Oc3ccc(NC(=O)c4nn(CC(C)O)cc4OC(C)C)nc3)c2cc1OC (centres unmarked) [Compound 151] | < 0.1 µM | < 1 µM
28 | COc1cc2nccc(Oc3ccc(NC(=O)c4nn(CC(C)O)cc4OCCF)nc3)c2cc1OC (centres unmarked) [Compound 152] | < 0.1 µM | < 1 µM
29 | COc1cc2nccc(Oc3ccc(NC(=O)c4nn(CCOC5CC5)cc4OCC(F)(F)F)nc3)c2cc1OC [Compound 153] | < 0.1 µM | < 1 µM
30 | CNCCn1cc(OCC(F)(F)F)c(C(=O)Nc2ccc(Oc3ccnc4cc(OC)c(OC)cc34)cc2F)n1 [Compound 154] | < 0.1 µM | 1 to 10 µM
31 | CNCCn1cc(OCC(F)(F)F)c(C(=O)Nc2ccc(Oc3ccnc4cc(OC)c(OC)cc34)c(F)c2)n1 [Compound 155] | 0.1 to 0.5 µM | 1 to 10 µM
32 | CNCCn1cc(OCC(F)(F)F)c(C(=O)Nc2ccc(Oc3ccnc4cc(OC)c(OC)cc34)c(C)c2)n1 [Compound 156] | 0.1 to 0.5 µM | 1 to 10 µM
33 | COc1cc2nccc(Oc3ccc(NC(=O)c4nn(C5CCN(C)C5)cc4OCC(F)(F)F)nn3)c2cc1OC (centres unmarked) [Compound 157] | 0.1 to 0.5 µM | 1 to 10 µM
34 | CCCn1cc(NCCC(F)(F)F)c(C(=O)Nc2ccc(Oc3ccnc4cc(OC)c(OC)cc34)cn2)n1 [Compound 158] | < 0.1 µM | 1 to 10 µM
35 | CCCn1cc(OCC2CNC2)c(C(=O)Nc2ccc(Oc3ccnc4cc(OC)c(OC)cc34)cn2)n1 [Compound 159] | ≥ 0.5 µM | ≥ 10 µM
36 | CNCCOc1cn(C2CC2)nc1C(=O)Nc1ccc(Oc2ccnc3cc(OC)c(OC)cc23)nn1 [Compound 160] | ≥ 0.5 µM | ≥ 10 µM
37 | COc1cc2nccc(Oc3ccc(NC(=O)c4nn(C5CC5)cc4OCC4COC4)nn3)c2cc1OC [Compound 161] | < 0.1 µM | 1 to 10 µM
38 | COc1cc2nccc(Oc3ccc(NC(=O)c4nn(C5CC5)cc4OCC(F)F)nn3)c2cc1OC [Compound 162] | < 0.1 µM | 1 to 10 µM
39 | COc1cc2nccc(Oc3ccc(NC(=O)c4nn(CC(C)O)cc4OCC4CCC4)nc3)c2cc1OC (centres unmarked) [Compound 163] | < 0.1 µM | 1 to 10 µM
40 | CCCn1cc(OCC2CCOCC2)c(C(=O)Nc2ccc(Oc3ccnc4cc(OC)c(OC)cc34)cn2)n1 [Compound 164] | < 0.1 µM | ≥ 10 µM
